Source: PubChem BioAssay AID2060912 (Molecular Pharmacology Branch, DTP, NCI, 2025)

Tested on: HUVEC/MSC spheroids viability
Assay: Human HUVEC/MSC cell line growth inhibition [KRAS2];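 on viability, T/C: percent of DMSO vehicle control luminescence so 100% = untreated viability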
Details: for viability, T/C: stronger effect = lower value
Procedure, shortened: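 Spheroids of pooled-donor HUVEC and hMSC (passage ≤5) without tumour cells were treated with KRAS-pathway inhibitors alone and combined with targeted agents. Top concentration was at or near clinical Cmax, or 10 microM when Cmax was unknown, descending in half-log steps.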

SMILES: COc1cc2nccc(Oc3ccc(NC(=O)C4(C(=O)Nc5ccc(F)cc5)CC4)cc3)c2cc1OC + C=CC(=O)N1CCN(c2nc(OCC3CCCN3C)nc3c2CCN(c2cccc4cccc(C)c24)C3)CC1CC#N
- IC50 (curve of first compound, second compound 0.00949 µM): 4.77 µM
- IC50 (curve of first compound, second compound 0.03 µM): 5.94 µM
- IC50 (curve of first compound, second compound 0.0949 µM): 8.74 µM
- IC50 (curve of first compound, second compound 0.3 µM): 7.29 µM
- IC50 (curve of first compound, second compound 0.949 µM): > 10 µM
- IC50 (curve of first compound, second compound 3 µM): 3.8 µM
- viability, T/C (second compound 0.00949 µM, first compound 0.0316 µM): 88.1%
- viability, T/C (second compound 0.00949 µM, first compound 0.1 µM): 102%
- viability, T/C (second compound 0.00949 µM, first compound 0.316 µM): 71.1%
- viability, T/C (second compound 0.00949 µM, first compound 1 µM): 65.7%
- viability, T/C (second compound 0.00949 µM, first compound 3.16 µM): 76.6%
- viability, T/C (second compound 0.00949 µM, first compound 10 µM): 22%
- viability, T/C (second compound 0.03 µM, first compound 0.0316 µM): 70.9%
- viability, T/C (second compound 0.03 µM, first compound 0.1 µM): 80.5%
- viability, T/C (second compound 0.03 µM, first compound 0.316 µM): 77.1%
- viability, T/C (second compound 0.03 µM, first compound 1 µM): 59.8%
- viability, T/C (second compound 0.03 µM, first compound 3.16 µM): 77.8%
- viability, T/C (second compound 0.03 µM, first compound 10 µM): 30.8%
- viability, T/C (second compound 0.0949 µM, first compound 0.0316 µM): 82.5%
- viability, T/C (second compound 0.0949 µM, first compound 0.1 µM): 78.6%
- viability, T/C (second compound 0.0949 µM, first compound 0.316 µM): 74%
- viability, T/C (second compound 0.0949 µM, first compound 1 µM): 77.4%
- viability, T/C (second compound 0.0949 µM, first compound 3.16 µM): 88.1%
- viability, T/C (second compound 0.0949 µM, first compound 10 µM): 46%
- viability, T/C (second compound 0.3 µM, first compound 0.0316 µM): 61.5%
- viability, T/C (second compound 0.3 µM, first compound 0.1 µM): 80.8%
- viability, T/C (second compound 0.3 µM, first compound 0.316 µM): 85.7%
- viability, T/C (second compound 0.3 µM, first compound 1 µM): 63.9%
- viability, T/C (second compound 0.3 µM, first compound 3.16 µM): 86.6%
- viability, T/C (second compound 0.3 µM, first compound 10 µM): 40.4%
- viability, T/C (second compound 0.949 µM, first compound 0.0316 µM): 61.9%
- viability, T/C (second compound 0.949 µM, first compound 0.1 µM): 71.8%
- viability, T/C (second compound 0.949 µM, first compound 0.316 µM): 73.3%
- viability, T/C (second compound 0.949 µM, first compound 1 µM): 83%
- viability, T/C (second compound 0.949 µM, first compound 3.16 µM): 75.9%
- viability, T/C (second compound 0.949 µM, first compound 10 µM): 38.5%
- viability, T/C (second compound 3 µM, first compound 0.0316 µM): 75.9%
- viability, T/C (second compound 3 µM, first compound 0.1 µM): 80.4%
- viability, T/C (second compound 3 µM, first compound 0.316 µM): 92.4%
- viability, T/C (second compound 3 µM, first compound 1 µM): 84.1%
- viability, T/C (second compound 3 µM, first compound 3.16 µM): 59.4%
- viability, T/C (second compound 3 µM, first compound 10 µM): 0.35%

SMILES: CCN1CCN(Cc2ccc(Nc3ncc(F)c(-c4cc(F)c5nc(C)n(C(C)C)c5c4)n3)nc2)CC1 + C=CC(=O)N1CCN(c2nc(=O)n(-c3c(C)ccnc3C(C)C)c3nc(-c4c(O)cccc4F)c(F)cc23)C(C)C1
- IC50 (curve of first compound, second compound 0.0316 µM): > 1 µM
- IC50 (curve of first compound, second compound 0.1 µM): > 1 µM
- IC50 (curve of first compound, second compound 0.316 µM): > 1 µM
- IC50 (curve of first compound, second compound 1 µM): > 1 µM
- IC50 (curve of first compound, second compound 3.16 µM): > 1 µM
- IC50 (curve of first compound, second compound 10 µM): > 1 µM
- viability, T/C (second compound 0.0316 µM, first compound 0.00316 µM): 76%
- viability, T/C (second compound 0.0316 µM, first compound 0.01 µM): 95.8%
- viability, T/C (second compound 0.0316 µM, first compound 0.0316 µM): 93.7%
- viability, T/C (second compound 0.0316 µM, first compound 0.1 µM): 86.6%
- viability, T/C (second compound 0.0316 µM, first compound 0.316 µM): 129%
- viability, T/C (second compound 0.0316 µM, first compound 1 µM): 107%
- viability, T/C (second compound 0.1 µM, first compound 0.00316 µM): 96.8%
- viability, T/C (second compound 0.1 µM, first compound 0.01 µM): 102%
- viability, T/C (second compound 0.1 µM, first compound 0.0316 µM): 85.1%
- viability, T/C (second compound 0.1 µM, first compound 0.1 µM): 82.9%
- viability, T/C (second compound 0.1 µM, first compound 0.316 µM): 129%
- viability, T/C (second compound 0.1 µM, first compound 1 µM): 116%
- viability, T/C (second compound 0.316 µM, first compound 0.00316 µM): 113%
- viability, T/C (second compound 0.316 µM, first compound 0.01 µM): 106%
- viability, T/C (second compound 0.316 µM, first compound 0.0316 µM): 98%
- viability, T/C (second compound 0.316 µM, first compound 0.1 µM): 87.2%
- viability, T/C (second compound 0.316 µM, first compound 0.316 µM): 112%
- viability, T/C (second compound 0.316 µM, first compound 1 µM): 123%
- viability, T/C (second compound 1 µM, first compound 0.00316 µM): 118%
- viability, T/C (second compound 1 µM, first compound 0.01 µM): 109%
- viability, T/C (second compound 1 µM, first compound 0.0316 µM): 109%
- viability, T/C (second compound 1 µM, first compound 0.1 µM): 119%
- viability, T/C (second compound 1 µM, first compound 0.316 µM): 119%
- viability, T/C (second compound 1 µM, first compound 1 µM): 133%
- viability, T/C (second compound 3.16 µM, first compound 0.00316 µM): 127%
- viability, T/C (second compound 3.16 µM, first compound 0.01 µM): 111%
- viability, T/C (second compound 3.16 µM, first compound 0.0316 µM): 132%
- viability, T/C (second compound 3.16 µM, first compound 0.1 µM): 121%
- viability, T/C (second compound 3.16 µM, first compound 0.316 µM): 138%
- viability, T/C (second compound 3.16 µM, first compound 1 µM): 162%
- viability, T/C (second compound 10 µM, first compound 0.00316 µM): 149%
- viability, T/C (second compound 10 µM, first compound 0.01 µM): 154%
- viability, T/C (second compound 10 µM, first compound 0.0316 µM): 130%
- viability, T/C (second compound 10 µM, first compound 0.1 µM): 134%
- viability, T/C (second compound 10 µM, first compound 0.316 µM): 118%
- viability, T/C (second compound 10 µM, first compound 1 µM): 162%

SMILES: C=CC(=O)N1CCN(c2nc(=O)n(-c3c(C)ccnc3C(C)C)c3nc(-c4c(O)cccc4F)c(F)cc23)C(C)C1 (configuration not stated)
- viability, T/C (compound 0.0316 µM): 99.5% [middle of 9 runs]
- viability, T/C (compound 10 µM): 117% [middle of 9 runs]
- IC50 (compound alone, run of 05/05/2024): > 10 µM
